Experimental data taken from patent publication US8273762B2, “Hexahydro-pyrrolo-isoquinoline compounds” (Janssen Pharmaceutica NV, priority 2005, dated 2012).
Like-named read-outs stand apart in the source and are kept apart here.

Key:
[1] = target: T1, human SERT (HEK293 membranes) (Homo sapiens, UniProt P31645); assay: Human SERT binding (3H-citalopram displacement)
T1 construct: purchased Perkin-Elmer; host or cells: HEK293 membranes

[2] = target: T2, human H3 receptor (SK-N-MC cells) (Homo sapiens, UniProt Q9Y5N1); assay: Cyclic AMP accumulation (β-galactosidase reporter, Schild analysis vs histamine); assay type: cell-based
T2 construct: expressed in transfected cells; host or cells: SK-N-MC sublines with CRE-beta-galactosidase reporter

[3] = target: T3, cloned human H3 receptor, stably expressed in SK-N-MC cells (Homo sapiens, UniProt Q9Y5N1); assay: H3 receptor binding (N-[3H]-α-methylhistamine displacement); conditions: SK-N-MC membranes, 0.8 nM N-[3H]-α-methylhistamine
T3 construct: expressed in transfected cells
T3 sequence (Q9Y5N1 whole entry): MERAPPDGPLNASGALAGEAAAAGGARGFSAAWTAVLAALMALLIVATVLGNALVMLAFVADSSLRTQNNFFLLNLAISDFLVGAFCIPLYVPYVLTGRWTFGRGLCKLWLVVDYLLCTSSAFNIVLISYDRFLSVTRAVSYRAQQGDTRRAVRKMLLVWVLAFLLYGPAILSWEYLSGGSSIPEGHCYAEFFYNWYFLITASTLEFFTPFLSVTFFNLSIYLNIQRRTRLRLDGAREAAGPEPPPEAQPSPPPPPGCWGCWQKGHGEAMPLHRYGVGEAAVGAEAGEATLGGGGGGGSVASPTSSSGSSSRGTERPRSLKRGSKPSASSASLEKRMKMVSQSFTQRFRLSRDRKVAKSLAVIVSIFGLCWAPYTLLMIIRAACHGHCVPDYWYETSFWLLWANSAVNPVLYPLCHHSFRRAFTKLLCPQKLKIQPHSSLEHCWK

T1 sequence (P31645 whole entry): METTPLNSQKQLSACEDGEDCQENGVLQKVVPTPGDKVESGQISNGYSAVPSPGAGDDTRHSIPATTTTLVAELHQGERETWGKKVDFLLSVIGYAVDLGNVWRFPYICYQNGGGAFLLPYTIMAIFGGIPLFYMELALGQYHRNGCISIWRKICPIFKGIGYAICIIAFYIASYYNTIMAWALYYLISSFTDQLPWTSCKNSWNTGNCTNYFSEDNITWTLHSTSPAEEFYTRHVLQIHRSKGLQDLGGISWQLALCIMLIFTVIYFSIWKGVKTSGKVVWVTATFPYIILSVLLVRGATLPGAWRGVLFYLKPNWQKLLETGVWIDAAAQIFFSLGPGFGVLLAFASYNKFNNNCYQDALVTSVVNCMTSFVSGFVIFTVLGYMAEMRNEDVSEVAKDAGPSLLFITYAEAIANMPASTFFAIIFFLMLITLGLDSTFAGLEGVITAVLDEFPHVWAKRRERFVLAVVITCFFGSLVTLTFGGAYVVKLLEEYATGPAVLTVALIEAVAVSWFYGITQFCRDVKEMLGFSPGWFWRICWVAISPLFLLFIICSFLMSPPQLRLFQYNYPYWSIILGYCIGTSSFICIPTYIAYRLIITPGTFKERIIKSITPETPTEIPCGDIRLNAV
T2 sequence (Q9Y5N1 whole entry): as the sequence (Q9Y5N1 whole entry) above

SMILES | Ki [1] [nM] | Kb ([2]; read-out: H3 pA2 (converted)) [nM] | Ki [3] [nM] | Kb [2] [nM]
COc1ccc([C@H]2CN3CCC[C@H]3c3cc(OCCCN4CCOCC4)ccc32)cc1 (relative stereo) [Example 38] | 7 |  |  | 
O=[N+]([O-])c1cccc([C@H]2CN3CCC[C@H]3c3cc(OCCCN4CCCCC4)ccc32)c1 (relative stereo) [Example 4A, Cis-6-(3-Nitro-phenyl)-9-(3-piperidin-1-yl-propoxy)-1,2,3,5,6,10b-hexahydro-pyrrolo[2,1-a]isoquinoline] | 4 | 0.126 | 1 | 
COc1ccc([C@H]2CN3CCC[C@H]3c3cc(OCCCN4CCCCC4)ccc32)c(OC)c1 (relative stereo) [Example 19] | 5 | 0.398 | 1 | 
COc1ccccc1[C@H]1CN2CCC[C@H]2c2cc(OCCCN3CCCCC3)ccc21 (relative stereo) [Example 13A] | 21 |  |  | 
Ic1cccc([C@H]2CN3CCC[C@H]3c3cc(OCCCN4CCCCC4)ccc32)c1 (relative stereo) [Example 32] | 11 | 0.316 | 1 | 
Brc1ccc([C@H]2CN3CCC[C@H]3c3cc(OCCCN4CCCCC4)ccc32)cc1 (relative stereo) [Example 40] | 18 |  | 3 | 
C#Cc1cccc([C@H]2CN3CCC[C@H]3c3cc(OCCCN4CCCCC4)ccc32)c1 (relative stereo) [Example 34] | 3 | 1 | 2 | 
COc1cc(OC)cc([C@H]2CN3CCC[C@H]3c3cc(OCCCN4CCCCC4)ccc32)c1 (relative stereo) [Example 21] | 5 | 0.794 | 1 | 
Oc1ccccc1[C@H]1CN2CCC[C@H]2c2cc(OCCCN3CCCCC3)ccc21 (relative stereo) [Example 16] | 112 | 1.26 | 4 | 
c1cncc([C@H]2CN3CCC[C@H]3c3cc(OCCCN4CCCCC4)ccc32)c1 (relative stereo) [Example 26] |  | 0.0794 | 0.8 | 
COc1ccc([C@H]2CN3CCC[C@H]3c3cc(OCCCN4CCCCC4)ccc32)cc1OC (relative stereo) [Example 18] | 13 | 0.501 | 0.9 | 
O=[N+]([O-])c1cccc([C@@H]2CN3CCC[C@H]3c3cc(OCCCN4CCCCC4)ccc32)c1 (relative stereo) [Example 4B, Trans-6-(3-Nitro-phenyl)-9-(3-piperidin-1-yl-propoxy)-1,2,3,5,6,10b-hexahydro-pyrrolo[2,1-a]isoquinoline] |  | 0.158 | 1 | 
C#Cc1ccc([C@H]2CN3CCC[C@H]3c3cc(OCCCN4CCCCC4)ccc32)cc1 (relative stereo) [Example 37] | 0.8 | 1.58 | 4 | 
COc1ccc([C@H]2CN3CCC[C@H]3c3cc(OCCCN4CCC(F)CC4)ccc32)cc1 (relative stereo) [Example 47] | 5 |  | 3 | 
COc1ccc([C@H]2CN3CCC[C@H]3c3cc(OCC4CCN(C(C)C)CC4)ccc32)cc1 (relative stereo) [Example 29] | 2 |  | 0.9 | 
COc1ccc(OC)c([C@H]2CN3CCC[C@H]3c3cc(OCCCN4CCCCC4)ccc32)c1 (relative stereo) [Example 20] | 43 | 1 | 1 | 
c1ccc([C@H]2CN3CCC[C@H]3c3cc(OCCCN4CCCCC4)ccc32)nc1 (relative stereo) [Example 25] |  |  | 0.8 | 0.1
COc1ccc([C@H]2CN3CCC[C@H]3c3cc(OCCCN4CCOCC4)ccc32)cc1F (relative stereo) [Example 65] |  |  | 4 | 
c1ncc([C@H]2CN3CCC[C@H]3c3cc(OCCCN4CCOCC4)ccc32)s1 (relative stereo) [Example 52] |  |  | 4 | 
Cc1cccc([C@H]2CN3CCC[C@H]3c3cc(OCCCN4CCCCC4)ccc32)c1 (relative stereo) [Example 31] | 28 |  | 12 | 
Brc1ccc([C@H]2CN3CCC[C@H]3c3ccc(OCCCN4CCCCC4)cc32)cc1 (relative stereo) [Example 42, Trans-6-(4-Bromo-phenyl)-8-(3-piperidin-1-yl-propoxy)-1,2,3,5,6,10b-hexahydro-pyrrolo[2,1-a]isoquinoline] |  |  | 2 | 

Second part, the compound after the results:

Ki [1] [nM] | Kb ([2]; read-out: H3 pA2 (converted)) [nM] | Ki [3] [nM] | Kb [2] [nM] | SMILES
 | 2.51 | 3 |  | CSc1ccc([C@H]2CN3CCC[C@H]3c3cc(C#CCCN4CCCCC4)ccc32)cc1 (relative stereo) [Example 98B, Trans-6-(4-methylsulfanyl-phenyl)-9-(4-piperidin-1-yl-but-1-ynyl)-1,2,3,5,6,10b-hexahydro-pyrrolo[2,1-a]isoquinoline]
2 | 10 | 4 |  | CSc1ccc([C@@H]2CN3CCC[C@H]3c3cc(C#CCCN4CCCCC4)ccc32)cc1 (relative stereo) [Example 98A, Cis-6-(4-methylsulfanyl-phenyl)-9-(4-piperidin-1-yl-but-1-ynyl)-1,2,3,5,6,10b-hexahydro-pyrrolo[2,1-a]isoquinoline]
 | 3.16 | 2 |  | Ic1ccc([C@H]2CN3CCC[C@H]3c3cc(OCCCN4CCCCC4)ccc32)cc1 (relative stereo) [Example 35B, Trans-6-(4-Iodo-phenyl)-9-(3-piperidin-1-yl-propoxy)-1,2,3,5,6,10b-hexahydro-pyrrolo[2,1-a]isoquinoline]
4 | 6.31 | 3 |  | Clc1ccc([C@@H]2CN3CCC[C@H]3c3cc(OCCCN4CCCCC4)ccc32)cc1Cl (relative stereo) [Example 6A, Cis-6-(3,4-Dichloro-phenyl)-9-(3-piperidin-1-yl-propoxy)-1,2,3,5,6,10b-hexahydro-pyrrolo[2,1-a]isoquinoline]
3 | 1 | 2 |  | Fc1ccc([C@@H]2CN3CCC[C@H]3c3cc(OCCCN4CCCCC4)ccc32)cc1 (relative stereo) [Example 14A, Cis-6-(4-Fluoro-phenyl)-9-(3-piperidin-1-yl-propoxy)-1,2,3,5,6,10b-hexahydro-pyrrolo[2,1-a]isoquinoline]
4 |  | 2 |  | CSc1ccc([C@H]2CN3CCC[C@H]3c3cc(OCCCN4CCCCC4)ccc32)cc1 (relative stereo) [Example 39A, Cis-6-(4-Methylsulfanyl-phenyl)-9-(3-piperidin-1-yl-propoxy)-1,2,3,5,6,10b-hexahydro-pyrrolo[2,1-a]isoquinoline]
4 | 2.51 | 2 |  | Cc1ccc([C@H]2CN3CCC[C@H]3c3cc(OCCCN4CCCCC4)ccc32)cc1 (relative stereo) [Example 5A, Cis-9-(3-Piperidine-1-yl-propoxy)-6-p-tolyl-1,2,3,5,6,10b-hexahydro-pyrrolo[2,1-a]isoquinoline]
 | 10 | 12 |  | CSc1ccc([C@H]2CN3CCC[C@H]3c3ccc(C#CCCN4CCCCC4)cc32)cc1 (relative stereo) [Example 97B, Trans-6-(4-methylsulfanyl-phenyl)-8-(4-piperidin-1-yl-but-1-ynyl)-1,2,3,5,6,10b-hexahydro-pyrrolo[2,1-a]isoquinoline]
9 | 6.31 | 1 |  | COc1ccc([C@@H]2CN3CCC[C@H]3c3cc(C#CCCN4CCCCC4)ccc32)cc1 (relative stereo) [Example 96A, Cis-6-(4-methoxy-phenyl)-9-(4-piperidin-1-yl-but-1-ynyl)-1,2,3,5,6,10b-hexahydro-pyrrolo[2,1-a]isoquinoline]
6 |  | 2 |  | Clc1ccc([C@@H]2CN3CCC[C@H]3c3cc(OCCCN4CCCCC4)ccc32)cc1 (relative stereo) [Example 66A, Cis-6-(4-Chloro-phenyl)-9-(3-piperidin-1-yl-propoxy)-1,2,3,5,6,10b-hexahydro-pyrrolo[2,1-a]isoquinoline]
8 | 1.26 | 2 |  | Clc1ccccc1[C@@H]1CN2CCC[C@H]2c2cc(OCCCN3CCCCC3)ccc21 (relative stereo) [Example 12A, Cis-6-(2-Chloro-phenyl)-9-(3-piperidin-1-yl-propoxy)-1,2,3,5,6,10b-hexahydro-pyrrolo[2,1-a]isoquinoline]
 | 0.631 | 1 |  | Clc1ccccc1[C@H]1CN2CCC[C@H]2c2cc(OCCCN3CCCCC3)ccc21 (relative stereo) [Example 12B, Trans-6-(2-Chloro-phenyl)-9-(3-piperidin-1-yl-propoxy)-1,2,3,5,6,10b-hexahydro-pyrrolo[2,1-a]isoquinoline]
 | 0.794 | 1 |  | Fc1ccc([C@H]2CN3CCC[C@H]3c3cc(OCCCN4CCCCC4)ccc32)cc1 (relative stereo) [Example 14B, Trans-6-(4-Fluoro-phenyl)-9-(3-piperidin-1-yl-propoxy)-1,2,3,5,6,10b-hexahydro-pyrrolo[2,1-a]isoquinoline]
 | 6.31 | 2 |  | FC(F)(F)c1ccc([C@@H]2CN3CCC[C@H]3c3cc(OCCCN4CCCCC4)ccc32)cc1 (relative stereo) [Example 7B, Trans-9-(3-Piperidin-1-yl-propoxy)-6-(4-trifluoromethyl-phenyl)-1,2,3,5,6,10b-hexahydro-pyrrolo[2,1-a]isoquinoline]
 |  | 91 |  | Clc1ccccc1[C@@H]1CN2CCC[C@H]2c2cccc(OCCCN3CCCCC3)c21 (relative stereo) [Example 12C, Cis-6-(2-Chloro-phenyl)-7-(3-piperidin-1-yl-propoxy)-1,2,3,5,6,10b-hexahydro-pyrrolo[2,1-a]isoquinoline]
 |  | 85 |  | Cc1ccc([C@@H]2CN3CCC[C@H]3c3cccc(OCCCN4CCCCC4)c32)cc1 (relative stereo) [Example 5C, Trans-7-(3-Piperidine-1-yl-propoxy)-6-p-tolyl-1,2,3,5,6,10b-hexahydro-pyrrolo[2,1-a]isoquinoline]
